For the compound `COc1cc2ncnc(N3CCN(C(=O)Nc4cccnc4)CC3)c2cc1OC` [Compound 265, 4-(6,7-Dimethoxy-4-quinazolinyl)-N-(3-pyridyl)-1-piperazinecarboxamide], the melting point was 208 to 209 °C.

On to `COc1cc2ncnc(N3CCN(C(=S)Nc4ccc(Br)c(C)c4)CC3)c2cc1OC` [Compound 191, N-(4-Bromo-3-methylphenyl)-4-(6,7-dimethoxy-4-quinazolinyl)-1-piperazinethiocarboxamide], for which the melting point lay within 160 to 161 °C.

`COC(=O)c1cc(NC(=O)N2CCN(c3ncnc4cc(OC)c(OC)cc34)CC2)cc(C(=O)OC)c1` [Compound 91, N-[3,5-Bis(methoxycarbonyl)phenyl]-4-(6,7-dimethoxy-4-quinazolinyl)-1-piperazinecarboxamide] yielded a melting point of 252 to 253 °C.

As to `COc1cc2ncnc(N3CCN(C(=O)Nc4ccc(N5CCOCC5)cc4)CC3)c2cc1OC` [Compound 117, 4-(6,7-Dimethoxy-4-quinazolinyl)-N-(4-morpholinophenyl)-1-piperazinecarboxamide], the melting point was in the range of 254 to 256 °C.

In turn, `O=C(Nc1ccc(Oc2ccccc2)cc1)N1CCN(c2ncnc3cc(OCc4ccccc4)c(OCc4ccccc4)cc23)CC1` [Compound 355, 4-(6,7-Dibenzyloxy-4-quinazolinyl)-N-(4-phenoxyphenyl)-1-piperazinecarboxamide] yielded a melting point of 137 to 138 °C.

The compound `COc1cc2ncnc(N3CCN(C(=O)Nc4ccc(OC(F)F)cc4)CC3)c2cc1OC` [Compound 158, N-(4-Difluoromethoxyphenyl)-4-(6,7-dimethoxy-4-quinazolinyl)-1-piperazinecarboxamide] came in with a melting point of 190 to 192 °C.

For `COc1cc2ncnc(N3CCN(C(=O)N[C@@H](C)c4ccccc4)CC3)c2cc1OC` [Compound 127, (S)-4-(6,7-Dimethoxy-4-quinazolinyl)-N-(1-phenylethyl)-1-piperazinecarboxamide], the melting point lay in the range of 191 to 192 °C.

Compound `COc1cc2ncnc(N3CCN(C(=S)Nc4ccc5c(O)nnc(O)c5c4)CC3)c2cc1OC` [Compound 99, N-(1,4-Dihydroxy-6-phthalazinyl)-4-(6,7-dimethoxy-4-quinazolinyl)-1-piperazinethiocarboxamide] had a melting point of 153 to 155 °C.

Regarding `CCOc1cc2ncnc(N3CCN(C(=O)Nc4ccc(C#N)cc4)CC3)c2cc1OCC` [Compound 352, N-(4-Cyanophenyl)-4-(6,7-diethoxy-4-quinazolinyl)-1-piperazinecarboxamide], the melting point lay within 186 to 187 °C.

Turning to `CCOc1cc2c(N3CCN(C(=O)Nc4ccc(Oc5ccccc5)cc4)CC3)ncnc2cc1OC` [Compound 346, 4-(6-Ethoxy-7-methoxy-4-quinazolinyl)-N-(4-phenoxyphenyl)-1-piperazinecarboxamide], the melting point is 213 to 214 °C.

As to `COc1cc2ncnc(N3CCN(C(=S)Nc4cccc(Br)c4)CC3)c2cc1OC` [Compound 181, N-(3-Bromophenyl)-4-(6,7-dimethoxy-4-quinazolinyl)-1-piperazinethiocarboxamide], the melting point lay in the range of 220 to 222 °C.

Regarding `COc1cc2ncnc(N3CCN(C(=O)Nc4cccc(Cl)c4)CC3)c2cc1OC` [Compound 39, N-(3-Chlorophenyl)-4-(6,7-dimethoxy-4-quinazolinyl)-1-piperazinecarboxamide], the melting point was in the range of 223 to 224 °C.

Compound `CCCn1c(=O)n(CCC)c2cc3c(N4CCN(C(=O)Nc5ccc(Oc6ccccc6)cc5)CC4)ncnc3cc21` [Compound 389, 4-(1,3-Dihydro-1,3-dipropyl-2-oxo-2H-imidazo[4,5-g]quinazolin-8-yl)-N-(4-phenoxyphenyl)-1-piperazinecarboxamide] had a melting point of 179 to 180 °C.

`COc1cc2ncnc(N3CCN(C(=S)NCc4ccccc4Cl)CC3)c2cc1OC` [Compound 176, N-(2-Chlorobenzyl)-4-(6,7-dimethoxy-4-quinazolinyl)-1-piperazinethiocarboxamide]: the melting point lay in the range of 175 to 176 °C.

Take `COc1cccc2c(N3CCN(C(=O)Nc4ccc(C(C)=O)cc4)CC3)ncnc12` [Compound 328, N-(4-Acetylphenyl)-4-(8-methoxy-4-quinazolinyl)-1-piperazinecarboxamide]: the melting point is 239 to 240 °C.

`O=C(Nc1ccc(Oc2ccccc2)cc1)N1CCN(c2nccc3ccccc23)CC1` [Compound 422, 4-(1-Isoquinolyl)-N-(4-phenoxyphenyl)-1-piperazinecarboxamide] gave a melting point of 122 to 123 °C.

Turning to `COc1cc2ncnc(N3CCN(C(=O)Nc4ccc(Cl)cc4Cl)CC3)c2cc1OC` [Compound 53, N-(2,4-Dichlorophenyl)-4-(6,7-dimethoxy-4-quinazolinyl)-1-piperazinecarboxamide], the melting point lay in the range of 166 to 167 °C.

Consider `COc1cc2ncnc(N3CCN(C(=O)Nc4ccncc4)CC3)c2cc1OC` [Compound 267, 4-(6,7-Dimethoxy-4-quinazolinyl)-N-(4-pyridyl)-1-piperazinecarboxamide], for which the melting point is 141 to 143 °C.

In turn, `S=C(NCc1ccccc1)N1CCN(c2ncnc3cc4ccccc4cc23)CC1` [Compound 365, 4-(4-Benzo[g]quinazolinyl)-N-benzyl-1-piperazinethiocarboxamide] gave a melting point of 187 to 188 °C.

Compound `COc1cc2ncnc(N3CCN(C(=O)NC4CCCCC4)CC3)c2cc1OC` [Compound 13, N-Cyclohexyl-4-(6,7-dimethoxy-4-quinazolinyl)-1-piperazinecarboxamide] had a melting point of 208 to 210 °C.

As to `COc1cc2ncnc(N3CCN(C(=O)Nc4ccc(F)c(Cl)c4)CC3)c2cc1OC` [Compound 193, N-(3-Chloro-4-fluorophenyl)-4-(6,7-dimethoxy-4-quinazolinyl)-1-piperazinecarboxamide], the melting point is 200 to 201 °C.

Regarding `COc1cc2ncnc(N3CCN(C(=O)N(C)c4ccccc4)CC3)c2cc1OC` [Compound 137, 4-(6,7-Dimethoxy-4-quinazolinyl)-N-methyl-N-phenyl-1-piperazinecarboxamide], the melting point lay within 187 to 188 °C.

Regarding `O=C(Nc1ccc([N+](=O)[O-])cc1)N1CCN(c2ncnc3cc4c(cc23)OCO4)CC1` [Compound 368, 4-(6,7-Methylenedioxy-4-quinazolinyl)-N-(4-nitrophenyl)-1-piperazinecarboxamide], the melting point fell in the range of 247 to 250 °C.

`COc1cc2ncnc(N3CCN(C(=S)Nc4ccc(C(F)(F)F)cc4)CC3)c2cc1OC` [Compound 159, 4-(6,7-Dimethoxy-4-quinazolinyl)-N-(4-trifluoromethylphenyl)-1-piperazinethiocarboxamide] yielded a melting point of 117 to 119 °C.

`CCCCc1ccc(NC(=O)N2CCN(c3ncnc4cc(OC)c(OC)cc34)CC2)cc1` [Compound 20, N-(4-Butylphenyl)-4-(6,7-dimethoxy-4-quinazolinyl)-1-piperazinecarboxamide] registered a melting point of 216 to 222 °C.

The compound `Cl.Cl.S=C(NCc1cccnc1)N1CCN(c2ccnc3cc(Cl)ccc23)CC1` showed a melting point of 170 to 173 °C.

For the compound `COc1ccc2ncnc(N3CCN(C(=O)Nc4ccc([N+](=O)[O-])cc4)CC3)c2c1` [Compound 308, 4-(6-Methoxy-4-quinazolinyl)-N-(4-nitrophenyl)-1-piperazinecarboxamide], the melting point is 228 to 229 °C.

The values above are taken from patent publication US6472391B2, “Nitrogen-containing heterocyclic compounds” (Millennium Pharmaceuticals, Inc., priority 1996, dated 2002).
